In BigSolDB 2.1:

CC(C)[C@H](NC(=O)OCC1c2ccccc2-c2ccccc21)C(=O)O
solubility (mole fraction) (in 2-butanone, 283.15 K): 0.0403 | solubility (mole fraction) (in 2-butanone, 288.15 K): 0.0448 | solubility (mole fraction) (in 2-butanone, 293.15 K): 0.0509 | solubility (mole fraction) (in 2-butanone, 298.15 K): 0.057 | solubility (mole fraction) (in 2-butanone, 303.15 K): 0.0632 | solubility (mole fraction) (in 2-butanone, 308.15 K): 0.0699 | solubility (mole fraction) (in 2-butanone, 313.15 K): 0.0793 | solubility (mole fraction) (in 2-butanone, 318.15 K): 0.0902 | solubility (mole fraction) (in 2-butanone, 323.15 K): 0.102 | solubility (mole fraction) (in acetone, 283.15 K): 0.0449 | solubility (mole fraction) (in acetone, 288.15 K): 0.0504 | solubility (mole fraction) (in acetone, 293.15 K): 0.0568 | solubility (mole fraction) (in acetone, 298.15 K): 0.0627 | solubility (mole fraction) (in acetone, 303.15 K): 0.0707 | solubility (mole fraction) (in acetone, 308.15 K): 0.0792 | solubility (mole fraction) (in acetone, 313.15 K): 0.0915 | solubility (mole fraction) (in acetone, 318.15 K): 0.104 | solubility (mole fraction) (in acetone, 323.15 K): 0.121 | solubility (mole fraction) (in acetonitrile, 283.15 K): 0.00264 | solubility (mole fraction) (in acetonitrile, 288.15 K): 0.00327 | solubility (mole fraction) (in acetonitrile, 293.15 K): 0.00399 | solubility (mole fraction) (in acetonitrile, 298.15 K): 0.00477 | solubility (mole fraction) (in acetonitrile, 303.15 K): 0.00577 | solubility (mole fraction) (in acetonitrile, 308.15 K): 0.00703 | solubility (mole fraction) (in acetonitrile, 313.15 K): 0.00867 | solubility (mole fraction) (in acetonitrile, 318.15 K): 0.0105 | solubility (mole fraction) (in acetonitrile, 323.15 K): 0.0128 | solubility (mole fraction) (in dimethyl carbonate, 283.15 K): 0.0073 | solubility (mole fraction) (in dimethyl carbonate, 288.15 K): 0.00766 | solubility (mole fraction) (in dimethyl carbonate, 293.15 K): 0.00901 | solubility (mole fraction) (in dimethyl carbonate, 298.15 K): 0.0108 | solubility (mole fraction) (in dimethyl carbonate, 303.15 K): 0.0131 | solubility (mole fraction) (in dimethyl carbonate, 308.15 K): 0.016 | solubility (mole fraction) (in dimethyl carbonate, 313.15 K): 0.0196 | solubility (mole fraction) (in dimethyl carbonate, 318.15 K): 0.0235 | solubility (mole fraction) (in dimethyl carbonate, 323.15 K): 0.0294 | solubility (mole fraction) (in ethanol, 283.15 K): 0.0177 | solubility (mole fraction) (in ethanol, 288.15 K): 0.0243 | solubility (mole fraction) (in ethanol, 293.15 K): 0.0261 | solubility (mole fraction) (in ethanol, 298.15 K): 0.0312 | solubility (mole fraction) (in ethanol, 303.15 K): 0.0373 | solubility (mole fraction) (in ethanol, 308.15 K): 0.0462 | solubility (mole fraction) (in ethanol, 313.15 K): 0.057 | solubility (mole fraction) (in ethanol, 318.15 K): 0.0714 | solubility (mole fraction) (in ethanol, 323.15 K): 0.0877 | solubility (mole fraction) (in isobutanol, 283.15 K): 0.00967 | solubility (mole fraction) (in isobutanol, 288.15 K): 0.0112 | solubility (mole fraction) (in isobutanol, 293.15 K): 0.0127 | solubility (mole fraction) (in isobutanol, 298.15 K): 0.0152 | solubility (mole fraction) (in isobutanol, 303.15 K): 0.0186 | solubility (mole fraction) (in isobutanol, 308.15 K): 0.0236 | solubility (mole fraction) (in isobutanol, 313.15 K): 0.0296 | solubility (mole fraction) (in isobutanol, 318.15 K): 0.0366 | solubility (mole fraction) (in isobutanol, 323.15 K): 0.0541 | solubility (mole fraction) (in isopentanol, 283.15 K): 0.0103 | solubility (mole fraction) (in isopentanol, 288.15 K): 0.0129 | solubility (mole fraction) (in isopentanol, 293.15 K): 0.0159 | solubility (mole fraction) (in isopentanol, 298.15 K): 0.0192 | solubility (mole fraction) (in isopentanol, 303.15 K): 0.0231 | solubility (mole fraction) (in isopentanol, 308.15 K): 0.0286 | solubility (mole fraction) (in isopentanol, 313.15 K): 0.0351 | solubility (mole fraction) (in isopentanol, 318.15 K): 0.0429 | solubility (mole fraction) (in isopentanol, 323.15 K): 0.0552 | solubility (mole fraction) (in isopropanol, 283.15 K): 0.0105 | solubility (mole fraction) (in isopropanol, 288.15 K): 0.0133 | solubility (mole fraction) (in isopropanol, 293.15 K): 0.0161 | solubility (mole fraction) (in isopropanol, 298.15 K): 0.0204 | solubility (mole fraction) (in isopropanol, 303.15 K): 0.0271 | solubility (mole fraction) (in isopropanol, 308.15 K): 0.0352 | solubility (mole fraction) (in isopropanol, 313.15 K): 0.0448 | solubility (mole fraction) (in isopropanol, 318.15 K): 0.0533 | solubility (mole fraction) (in isopropanol, 323.15 K): 0.071 | solubility (mole fraction) (in methanol, 283.15 K): 0.0238 | solubility (mole fraction) (in methanol, 288.15 K): 0.0259 | solubility (mole fraction) (in methanol, 293.15 K): 0.0321 | solubility (mole fraction) (in methanol, 298.15 K): 0.0396 | solubility (mole fraction) (in methanol, 303.15 K): 0.0468 | solubility (mole fraction) (in methanol, 308.15 K): 0.0571 | solubility (mole fraction) (in methanol, 313.15 K): 0.0694 | solubility (mole fraction) (in methanol, 318.15 K): 0.0846 | solubility (mole fraction) (in methanol, 323.15 K): 0.0985 | solubility (mole fraction) (in n-butanol, 283.15 K): 0.0155 | solubility (mole fraction) (in n-butanol, 288.15 K): 0.019 | solubility (mole fraction) (in n-butanol, 293.15 K): 0.0216 | solubility (mole fraction) (in n-butanol, 298.15 K): 0.0244 | solubility (mole fraction) (in n-butanol, 303.15 K): 0.0287 | solubility (mole fraction) (in n-butanol, 308.15 K): 0.0351 | solubility (mole fraction) (in n-butanol, 313.15 K): 0.0434 | solubility (mole fraction) (in n-butanol, 318.15 K): 0.0536 | solubility (mole fraction) (in n-butanol, 323.15 K): 0.0728 | solubility (mole fraction) (in n-butyl acetate, 283.15 K): 0.0143 | solubility (mole fraction) (in n-butyl acetate, 288.15 K): 0.0162 | solubility (mole fraction) (in n-butyl acetate, 293.15 K): 0.0184 | solubility (mole fraction) (in n-butyl acetate, 298.15 K): 0.0209 | solubility (mole fraction) (in n-butyl acetate, 303.15 K): 0.0234 | solubility (mole fraction) (in n-butyl acetate, 308.15 K): 0.0273 | solubility (mole fraction) (in n-butyl acetate, 313.15 K): 0.0314 | solubility (mole fraction) (in n-butyl acetate, 318.15 K): 0.0362 | solubility (mole fraction) (in n-butyl acetate, 323.15 K): 0.0417 | solubility (mole fraction) (in n-pentanol, 283.15 K): 0.016 | solubility (mole fraction) (in n-pentanol, 288.15 K): 0.0172 | solubility (mole fraction) (in n-pentanol, 293.15 K): 0.0199 | solubility (mole fraction) (in n-pentanol, 298.15 K): 0.0233 | solubility (mole fraction) (in n-pentanol, 303.15 K): 0.0281 | solubility (mole fraction) (in n-pentanol, 308.15 K): 0.0344 | solubility (mole fraction) (in n-pentanol, 313.15 K): 0.0417 | solubility (mole fraction) (in n-pentanol, 318.15 K): 0.0495 | solubility (mole fraction) (in n-pentanol, 323.15 K): 0.0582 | solubility (mole fraction) (in n-propanol, 283.15 K): 0.0141 | solubility (mole fraction) (in n-propanol, 288.15 K): 0.0169 | solubility (mole fraction) (in n-propanol, 293.15 K): 0.0199 | solubility (mole fraction) (in n-propanol, 298.15 K): 0.0227 | solubility (mole fraction) (in n-propanol, 303.15 K): 0.0319 | solubility (mole fraction) (in n-propanol, 308.15 K): 0.0398 | solubility (mole fraction) (in n-propanol, 313.15 K): 0.0481 | solubility (mole fraction) (in n-propanol, 318.15 K): 0.057 | solubility (mole fraction) (in n-propanol, 323.15 K): 0.0742 | solubility (mole fraction) (in sec-butanol, 283.15 K): 0.016 | solubility (mole fraction) (in sec-butanol, 288.15 K): 0.0174 | solubility (mole fraction) (in sec-butanol, 293.15 K): 0.0222 | solubility (mole fraction) (in sec-butanol, 298.15 K): 0.0275 | solubility (mole fraction) (in sec-butanol, 303.15 K): 0.0349 | solubility (mole fraction) (in sec-butanol, 308.15 K): 0.0435 | solubility (mole fraction) (in sec-butanol, 313.15 K): 0.0549 | solubility (mole fraction) (in sec-butanol, 318.15 K): 0.0653 | solubility (mole fraction) (in sec-butanol, 323.15 K): 0.0801
